# Read-outs that look alike come from different tables or passages of the source.
# Tests used:
# [1] = molecular target: T1, dopamine transporter ([^3 H]CFT binding sites, primate caudate-putamen) (Macaca fascicularis, UniProt Q9GJT6); experiment: Inhibition of [^3 H]CFT binding in monkey caudate-putamen membranes (Table 2); design: species or system cynomolgus monkeys (Macaca fascicularis)
# T1 construct: from tissue; host or cells: caudate-putamen membranes of cynomolgus monkey brain
# [2] = molecular target: dopamine transporter, human caudate nucleus and putamen (Homo sapiens, UniProt Q01959); experiment: [^3 H]CFT binding to homogenates of human caudate nucleus and putamen
# From the text: In order to determine whether [^3 H]CFT labels sites associated with the dopamine transporter, the binding of [^3 H]CFT to homogenates of human caudate nucleus and putamen, was characterized.
# [3] = test system: [^3 H]CFT binding sites in monkey caudate-putamen; conditions: cited from earlier work; for number of binding components: competition curves; for steepness of competition curve: displacement of [^3 H]CFT
# [4] = test system: cocaine receptors in squirrel monkey brain; experiment: Ex vivo autoradiography after intravenous administration; type: in vivo, squirrel monkeys
# From the text: From the in vitro autoradiographic studies, two conclusions were drawn: (a) cocaine receptors labelled by [^3 H]CFT distributed primarily to dopamine-rich brain regions and (b) the highly circumscribed distribution and low level of non-specific binding of [^3 H]CFT further supported the development of CFT as a PET imaging ligand for cocaine receptors in vivo. However, as the distribution pattern of a probe in vitro may not necessarily reflect its distribution in vivo, it was necessary to determine whether similar conclusions could be drawn using ex vivo autoradiographic techniques. The ex vivo autoradiographic distribution of [^3 H]CFT was determined following intravenous administration of [^3 H]CFT (1.0 or 2.5 nmol/kg) to squirrel monkeys (FIG. 4B). Brain sections from several A-P levels were exposed to [^3 H]-sensitive film. […] Nevertheless, the ex vivo labeling of brain regions by [^3 H] CFT corresponded closely to the in vitro autoradiographic pattern.
# (§1) At the time these studies were completed, a higher affinity iodinated analog of [^3 H]CFT, [^125 I]RTI-55 (i.e., CIT, 2β-carbomethoxy-3β-(4-iodophenyl)tropane; Dupont-NEN), became available. […] This ligand was also tested by ex vivo autoradiography as an imaging probe.
# [5] = test system: cocaine recognition sites in squirrel monkey brain; experiment: In vitro autoradiography in squirrel monkey brain sections; type: binding
# Experimental: To identify the distribution of cocaine recognition sites in the brain, autoradiographic techniques were utilized. Such techniques were particularly appropriate for this purpose because they are 100-1,000 times more sensitive than radioreceptor assays conducted in tissue homogenates. […] Three sequential procedures: parametric studies, in vitro autoradiographic techniques, and ex vivo autoradiographic techniques were conducted in tissue sections of squirrel monkey brains.
# After establishing suitable conditions for autoradiography, systematic mapping of cocaine recognition sites were conducted in squirrel monkey brain at nine anterior-posterior levels. Tissue sections were incubated alone, or in the presence of excess (-)-cocaine to determine total and nonspecific binding of [^3 H]CFT, respectively.
# [6] = molecular target: T2, cocaine recognition sites in monkey caudate-putamen (Macaca fascicularis, UniProt Q9GJT6); experiment: [^3 H]CFT and [^3 H]cocaine binding in tissue homogenates of monkey caudate-putamen
# T2 construct: All studies were conducted in monkey brain caudate-putamen; from tissue; host or cells: monkey brain caudate-putamen homogenates
# Experimental: All studies were conducted in monkey brain caudate-putamen for two reasons. […] Second, primates are consistently used to test diagnostic imaging agents and to test for cocaine-like drugs and drug therapies for Parkinson's disease.
# [7] = molecular target: T2, cocaine recognition sites in monkey caudate-putamen; conditions: cited from earlier work
# [8] = test system: cocaine binding sites associated with the dopamine transporter; experiment: Binding in postmortem Parkinson's diseased putamen / caudate-putamen; design: species or system human; conditions: tissue homogenates (FIG. 3) or tissue sections
# [9] = test system: caudate-putamen / striatum cocaine receptors; experiment: PET imaging with [^11 C]CFT
# [10] = test system: sites in the caudate putamen; experiment: [^125 I]RTI-55 labeling of sites in caudate putamen; type: binding
# Experimental: as §1
# serotonin transporter = conditions: cited from earlier work
# [11] = human caudate nucleus and putamen homogenates
# [12] = [^3 H]CFT 1.0 or 2.5 nmol/kg i.v.
# Sequence of dopamine transporter, human caudate nucleus and putamen (Q01959 whole entry): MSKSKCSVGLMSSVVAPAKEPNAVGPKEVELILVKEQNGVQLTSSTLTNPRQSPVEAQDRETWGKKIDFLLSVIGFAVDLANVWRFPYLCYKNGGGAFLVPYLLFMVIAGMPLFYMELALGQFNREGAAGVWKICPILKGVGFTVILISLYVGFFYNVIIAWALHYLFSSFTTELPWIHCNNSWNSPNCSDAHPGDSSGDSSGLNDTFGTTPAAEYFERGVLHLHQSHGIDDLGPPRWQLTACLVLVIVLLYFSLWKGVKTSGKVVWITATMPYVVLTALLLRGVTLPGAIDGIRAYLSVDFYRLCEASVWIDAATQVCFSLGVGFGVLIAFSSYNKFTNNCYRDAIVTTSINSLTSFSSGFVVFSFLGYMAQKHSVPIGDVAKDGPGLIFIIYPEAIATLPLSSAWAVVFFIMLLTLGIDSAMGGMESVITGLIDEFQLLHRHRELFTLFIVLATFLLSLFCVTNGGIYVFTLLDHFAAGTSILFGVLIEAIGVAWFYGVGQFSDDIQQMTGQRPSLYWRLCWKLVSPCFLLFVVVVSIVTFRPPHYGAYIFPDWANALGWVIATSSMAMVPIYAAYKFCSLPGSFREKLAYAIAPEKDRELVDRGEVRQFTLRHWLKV
# T2 sequence (Q9GJT6 whole entry): as the sequence (Q01959 whole entry) above, with V24M, I137V, P194S, S198G, D200N, S201G, S202P counted along it
# T1 sequence (Q9GJT6 whole entry): as the sequence (Q01959 whole entry) above, with V24M, I137V, P194S, S198G, D200N, S201G, S202P counted along it
smiles,measurement,setting,value
"COC(=O)[C@H]1[C@@H](c2ccc(Cl)cc2)C[C@@H]2CC[C@H]1N2C [4'b (CCT), 2β-Carbomethoxy-3β-(4-chlorophenyl)tropane]",IC50,[1],1.4 ± 0.035 nM
"COC(=O)[C@H]1[C@@H](c2cccc(Br)c2)C[C@@H]2CC[C@H]1N2C [4'd (3-CBT), 2β-Carbomethoxy-3β-(3-bromophenyl)tropane]",IC50,[1],7.93 ± 0.077 nM
"COC(=O)[C@H]1[C@@H](c2cccc(I)c2)C[C@@H]2CC[C@H]1N2C [4'e (3-CIT), 2β-Carbomethoxy-3β-(3-iodophenyl)tropane]",IC50,[1],27.8 ± 3.05 nM
"CCC[CH2][Sn]([CH2]CCC)([CH2]CCC)[c]1cccc([C@H]2C[C@@H]3CC[C@H]([C@H]2C(=O)OC)N3C)c1 [4'f, 2β-Carbomethoxy-3β-(3-tributylstannylphenyl)tropane]",IC50,[1],1080 ± 165 nM
"COC(=O)[C@H]1[C@@H](c2ccccc2)C[C@@H]2CC[C@H]1N2C [4'g (WIN 35, 065-2)]",IC50,[1]; read-out: IC50,65 ± 12 nM
"COC(=O)[C@H]1[C@@H](c2ccc(I)cc2)C[C@@H]2CC[C@H]1N2C [4'h (RTI-55), 2β-carbomethoxy-3β-(4-iodophenyl)tropane]",IC50,[1],1.08 ± 0.06 nM
COC(=O)[C@@H]1[C@H](OC(=O)c2ccccc2)C[C@H]2CC[C@@H]1N2C [(+)-cocaine],rank order of potency for inhibiting [^3 H]CFT binding,[2]; [11],"Lu 19-005>CFT, mazindol, GBR 12909>(-)-cocaine>bupropion>(+)-cocaine"
COC(=O)[C@H]1[C@@H](OC(=O)c2ccccc2)C[C@@H]2CC[C@H]1N2C [(-)-cocaine],rank order of potency for inhibiting [^3 H]CFT binding,[2]; [11],"Lu 19-005>CFT, mazindol, GBR 12909>(-)-cocaine>bupropion>(+)-cocaine"
same,extent of displacement of [^3 H]CFT,[3],full displacement of [^3 H]CFT
same,number of binding components,[3],at least two binding components
same,steepness of competition curve,[3],0.61-0.89
COC(=O)[C@H]1[C@@H](OC(=O)c2ccccc2)C[C@@H]2CC[C@H]1N2 [(-)-norcocaine],extent of displacement of [^3 H]CFT,[3],full displacement of [^3 H]CFT
same,number of binding components,[3],at least two binding components
same,steepness of competition curve,[3],0.61-0.89
Fc1ccc(C(OCCN2CCN(CCCc3ccccc3)CC2)c2ccc(F)cc2)cc1 [GBR 12909],rank order of potency for inhibiting [^3 H]CFT binding,[2],"Lu 19-005>CFT, mazindol, GBR 12909>(-)-cocaine>bupropion>(+)-cocaine"
same,number of binding components,[3],a single binding component
same,steepness of competition curve,[3],0.94-1.1
CNC1CC(c2ccc(Cl)c(Cl)c2)c2ccccc21 (stereo not shown) [Lu 19-005],number of binding components,[3],a single binding component
same,steepness of competition curve,[3],0.94-1.1
"COC(=O)[C@H]1[C@@H](c2ccc(F)cc2)C[C@@H]2CC[C@H]1N2C [[^3 H]CFT, 2β-carbomethoxy-3β-(4-fluorophenyl)tropane]","ex vivo binding compared with in vitro, cortex and thalamus",[4]; [12],more prominent binding in vivo than in vitro
same,ex vivo distribution of binding,[4]; [12],"caudate, putaman>nucleus accumbens/olfactory tubercla, stria terminalis>substantia nigra>hypothalamus"
same,character of [^3 H]CFT binding,[2]; [11],"saturable, stereoselective"
same,density of [^3 H]CFT binding,"[5]; bed nucleus of stria terminalis, ventral tegmental area, medial preoptic area, pineal, hippocampus, thalamic central nuclei","Low, though measurable, levels"
same,specific binding as % of total binding,"[5]; caudate nucleus, putamen, nucleus accumbens, olfactory tubercle",> 90%
same,density of [^3 H]CFT binding,"[5]; dopamine-rich regions: caudate nucleus, putamen, nucleus accumbens, olfactory tubercle",High densities
same,density of [^3 H]CFT binding,"[5]; substantia nigra, zona incerta, amygdala, hypothalamus",Intermediate densities
same,density of [^3 H]CFT binding,"[5]; white matter, cerebellum, globus pallidus, cortical regions",Near background levels
same,affinity relative to [^3 H]cocaine,[6],18 times
same,stereoselective inhibition of binding,"[7]; by enantiomers of cocaine and pseudococaine and diastereoisomers of WIN 35,065-2",inhibited stereoselectively
same,NaCl requirement for specific binding,[7],NaCl was necessary for specific binding
same,dissociation rate versus [^3 H]cocaine,[7],considerably slower
same,non-specific binding versus [^3 H]cocaine,[7],lower than that of [^3 H]cocaine
same,high-affinity component of total number of sites,[7]; high- and low-affinity binding components,approximately 10%
same,Bmax (density of binding sites),[7]; monkey caudate-putamen homogenates,388 pmol/g
same,Kd,"[7]; read-out: K0.50, affinity, monkey caudate-putamen",16 nM
same,[^3 H]CFT binding sites in postmortem human Parkinson's diseased caudate-putamen,[8],severely depleted
"COC(=O)[C@H]1[C@@H](c2ccc(F)cc2)C[C@@H]2CC[C@H]1N2C [[^11 C]CFT, 2β-carbomethoxy-3β-(4-fluorophenyl)tropane]",striatal-to-cerebellar ratio,[9]; 58 min,> 4.0
same,CFT binding in MPTP-treated Parkinsonian monkeys,[9]; MPTP-treated Parkinsonian,reduced
same,uptake in caudate-putamen,"[9]; PET, 90 min imaging",high uptake
same,CFT binding in asymptomatic monkeys,[9]; asymptomatic,depletion was found
"COC(=O)[C@H]1[C@@H](c2ccc(I)cc2)C[C@@H]2CC[C@H]1N2C [[^125 I]RTI-55, 2β-carbomethoxy-3β-(4-iodophenyl)tropane]",ex vivo density,[4]; caudate-putamen,highest densities
same,ex vivo density,"[4]; thalamus, cortex and brain stem nuclei",moderately high densities
same,potency of labeling caudate putamen sites relative to [^3 H]CFT,[10],approximately 10 fold
same,additional sites labeled,serotonin transporter,associated with the serotonin transporter
CC(NC(C)(C)C)C(=O)c1cccc(Cl)c1 (stereo not shown) [bupropion],rank order of potency for inhibiting [^3 H]CFT binding,[2],"Lu 19-005>CFT, mazindol, GBR 12909>(-)-cocaine>bupropion>(+)-cocaine"
same,number of binding components,[3],a single binding component
same,steepness of competition curve,[3],0.94-1.1
OC1(c2ccc(Cl)cc2)c2ccccc2C2=NCCN21 (stereo not shown) [mazindol],rank order of potency for inhibiting [^3 H]CFT binding,[2],"Lu 19-005>CFT, mazindol, GBR 12909>(-)-cocaine>bupropion>(+)-cocaine"
same,displacement of bound [^11 C]CFT from striatum,"[9]; cynomolgus monkey, in vivo",displaced bound [^11 C]CFT from the striatum
